Entries after “also recorded” stand apart in the source; their conditions may differ.
System: Hela cells
Assay: Cell uptake of FAM-labelled oligomers, fluorescence confocal microscopy
Assay type: cell-based
Details: fluorescein-labelled, 0.5 μM, 24 h, 37° C.
Procedure: Culture and transfection of Hela cells with fluorescein-labeled aegPNA, AP-PNA, GP-PNA oligomers and Tat peptide were carried out according to previously published protocols (Janowski, B. A., et al., Nature Protocols (2006) 1, 436; Shiraishi, T., &. Nielsen, P. E., Nature Protocols (2006) 1, 633). Hela cells were grown in 75-cm^2 culture flasks at 37° C. in an atmosphere of 5% CO2 in Hyclone DMEM/High Glucose medium without antibiotics and were plated at 100,000 cells per well on 6-well Lab-Tek chambered coverglass slides in DMEM medium and cultured two days before transfection. Oligomer solutions were prepared by diluting a 200 μM stock solution at 1×PBS buffer to 0.5 μM with warmed (37° C.) medium. The cell medium was discarded and cells were washed with 1×PBS buffer followed by incubation with the above prepared oligomers at a concentration of 0.5 μM for 24 h at 37° C. in an atmosphere of 5% CO2. The medium was removed and cells were washed with 1×PBS buffer (2 mL×3) and fixed with […]. The cells were imaged with Olympus IX51 fitted with Cool SNAP^HQ camera and analyzed using Metamorph software (Molecular Devices).
For the present example the GP-PNA and AP-PNA with the 6-C spacer was chose to examine the cell-uptake activity, since these display the strongest binding affinity when complexed to complementary DNA. Dodecamer aegPNA (Fl-TAGTAGATCACT-Gly-NH2) (SEQ ID NO:1), AP-PNA (Fl-TA^6aGT^6aAG^6aAT^6aCA^6aCT^6a-Gly-NH2) (SEQ ID NO:2), GP-PNA (Fl-TA^6gGT^6gAG^6gAT^6gCA^6gCT^6g-Gly-NH2) (SEQ ID NO:3) oligomers and Tat peptide (Fl-Tyr-Gly-Arg-Lys-Lys-Arg-Arg-Gln-Arg-Arg-Arg-NH2) (SEQ ID NO:4) were synthesized and labeled by fluorescein at the N-terminus. These oligomers were incubated with Hela cells for 24 h at 37° C. and were fixed by paraformaldehyde after PBS (1×) buffer washing. Their uptake properties were determined by fluorescence confocal microscopy. […] To conclude, the guanidino groups pendant from the backbone amide nitrogen confer cell-permeability to the modified PNAs.

Substance | cell uptake (fluorescence in cells)
Fl-TAGTAGATCACT-Gly-NH2 [aegPNA, reference compound] | poor cell uptake property
Fl-TA^6aGT^6aAG^6aAT^6aCA^6aCT^6a-Gly-NH2 [AP-PNA] | better cell uptake property than the aegPNA; also recorded: moderate enhancement in cell uptake activity compared with aegPNA
Fl-TA^6gGT^6gAG^6gAT^6gCA^6gCT^6g-Gly-NH2 [GP-PNA] | clear and strong fluorescence images were detected in almost all cells; also recorded: readily taken up by Hela cells
